{"source": "patent US20250154686A1", "about": "“COMPOUND LIBRARY” (CHUGAI SEIYAKU KABUSHIKI KAISHA, priority 2021, published 2025)", "target": "T1, Bcl-2 protein (Recombinant Human Bcl-2 Protein) (Homo sapiens, UniProt P10415)", "T1 construct": "purchased Novus Biologicals NBP2-34889", "T1 sequence (P10415 whole entry)": "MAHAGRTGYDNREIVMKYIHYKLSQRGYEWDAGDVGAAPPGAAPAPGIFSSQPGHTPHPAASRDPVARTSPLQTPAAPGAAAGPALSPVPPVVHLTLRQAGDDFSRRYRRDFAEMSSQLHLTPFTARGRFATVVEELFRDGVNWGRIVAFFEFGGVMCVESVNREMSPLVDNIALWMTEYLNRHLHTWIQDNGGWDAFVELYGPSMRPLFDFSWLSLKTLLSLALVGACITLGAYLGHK", "test": "AS-MS evaluation of binding of the Example 4 mixture library (1200 compounds/well) to Bcl-2, ASMS ratio (%)", "summary_of_the_method": "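Affinity-selection MS: 1200 cpds/well, 20 nM each; hBcl-2 20 μM; 25 mM Tris pH 7.4/150 mM NaCl/0.025% Tween-20/1 mM DTT; 1 h, 23 °C, dark; P-2 size-exclusion spin, MeCN:MeOH 1:1 extraction; RP LC/MS; ratio vs no-protein STD and SEC blank.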", "key": {"[1]": {"settings": "AS-MS, Example 4 mixture library, Bcl-2, replicate n = 1"}, "[2]": {"settings": "AS-MS, Example 4 mixture library, Bcl-2, replicate n = 2"}, "[3]": {"settings": "replicate n = 1, mixture library, value belongs to the MS peak assigned to the compound"}, "[4]": {"settings": "replicate n = 2, mixture library, value belongs to the MS peak assigned to the compound"}}, "data": [{"smiles": "CCOc1cncc(-c2ccccc2CN2CCN(c3ccc(C(=O)NS(=O)(=O)CCC(F)(F)F)nn3)CC2)c1", "note": "[Compound B2N072-01, 6-[4-[[2-(5-Ethoxypyridin-3-yl)phenyl]methyl]piperazin-1-yl]-N-(3,3,3-trifluoropropylsulfonyl)pyridazine-3-carboxamide]", "values": [{"measurement": "ASMS ratio (%) n = 1", "setting": "[1]", "value": 0.0, "unit": "%"}, {"measurement": "ASMS ratio (%) n = 2", "setting": "[2]", "value": 0.1, "unit": "%"}]}, {"smiles": "CCOc1cncc(-c2csc(C(=O)N3CCN(c4ccc(C(=O)NS(=O)(=O)C(C)(C)C)nn4)CC3)c2)c1", "note": "[Compound B2L002-01, N-tert-Butylsulfonyl-6-[4-[4-(5-ethoxypyridin-3-yl)thiophene-2-carbonyl]piperazin-1-yl]pyridazine-3-carboxamide]", "values": [{"measurement": "ASMS ratio (%) n = 1", "setting": "[3]", "value": 0.0, "unit": "%"}, {"measurement": "ASMS ratio (%) n = 2", "setting": "[4]", "value": 0.0, "unit": "%"}]}, {"smiles": "CCCNC(=O)c1ccc(N2CCN(Cc3cc(-c4cccc(OCC)c4)cs3)CC2)cc1", "note": "[Compound B1M067-01]", "values": [{"measurement": "ASMS ratio (%) n = 1", "setting": "AS-MS, mixture of 1200 compounds/well, Bcl-2 protein, replicate n = 1", "value": "−1.6", "unit": "%"}, {"measurement": "ASMS ratio (%) n = 2", "setting": "AS-MS, mixture of 1200 compounds/well, Bcl-2 protein, replicate n = 2", "value": "−87.4", "unit": "%"}]}, {"smiles": "CCOc1cncc(-c2ccccc2CCC(=O)N2CCN(c3ccc(C(=O)NS(=O)(=O)C(C)(C)C)nn3)CC2)c1", "note": "[Compound B2L012-01]", "values": [{"measurement": "ASMS ratio (%) n = 1", "setting": "[3]", "value": 4.3, "unit": "%"}, {"measurement": "ASMS ratio (%) n = 2", "setting": "[4]", "value": 7.3, "unit": "%"}]}, {"smiles": "CCOc1cccc(-c2ccc(C(=O)N3CCN(c4ccc(C(=O)NS(=O)(=O)c5ccc(NCCSc6ccccc6)c(C(F)(F)F)c5)nn4)CC3)cc2C)c1", "note": "[Compound B2R003-01, 6-[4-[4-(3-Ethoxyphenyl)-3-methylbenzoyl]piperazin-1-yl]-N-[4-(2-phenylsulfanylethylamino)-3-(trifluoromethyl)phenyl]sulfonylpyridazine-3-carboxamide]", "values": [{"measurement": "ASMS ratio (%) n = 1", "setting": "[1]", "value": 21.6, "unit": "%"}, {"measurement": "ASMS ratio (%) n = 2", "setting": "[2]", "value": 0.0, "unit": "%"}]}, {"smiles": "CCOc1cccc(-c2ccc(CN3CCN(c4ccc(C(=O)NS(=O)(=O)c5ccc(NCCSc6ccccc6)c(C(F)(F)F)c5)nn4)CC3)c(CC)c2)c1", "note": "[Compound B2R075-01, 6-[4-[[4-(3-Ethoxyphenyl)-2-ethylphenyl]methyl]piperazin-1-yl]-N-[4-(2-phenylsulfanylethylamino)-3-(trifluoromethyl)phenyl]sulfonylpyridazine-3-carboxamide]", "values": [{"measurement": "ASMS ratio (%) n = 1", "setting": "[1]", "value": 8.6, "unit": "%"}, {"measurement": "ASMS ratio (%) n = 2", "setting": "[2]", "value": 0.0, "unit": "%"}]}, {"smiles": "CCOc1cncc(-c2cc(CN3CCN(c4ccc(C(=O)NS(=O)(=O)c5ccc(NCCSc6ccccc6)c(C(F)(F)F)c5)cc4)CC3)cc(OC(F)(F)F)c2)c1", "note": "[Compound B2R064-01, 4-[4-[[3-(5-Ethoxypyridin-3-yl)-5-(trifluoromethoxy)phenyl]methyl]piperazin-1-yl]-N-[4-(2-phenylsulfanylethylamino)-3-(trifluoromethyl)phenyl]sulfonylbenzamide]", "values": [{"measurement": "ASMS ratio (%) n = 1", "setting": "[1]", "value": 4.2, "unit": "%"}, {"measurement": "ASMS ratio (%) n = 2", "setting": "[2]", "value": "−7.4", "unit": "%"}]}, {"smiles": "CCOc1cncc(-c2cc(C(=O)N3CCN(c4ccc(C(=O)NS(C)(=O)=O)cc4)CC3)cc(C(F)(F)F)c2)c1", "note": "[Compound B2I040-01, 4-[4-[3-(5-Ethoxypyridin-3-yl)-5-(trifluoromethyl)benzoyl]piperazin-1-yl]-N-methylsulfonylbenzamide]", "values": [{"measurement": "ASMS ratio (%) n = 1", "setting": "[3]", "value": 0.0, "unit": "%"}, {"measurement": "ASMS ratio (%) n = 2", "setting": "[4]", "value": "−2.7", "unit": "%"}]}, {"smiles": "CCOc1cncc(-c2cc(CN3CCN(c4ccc(C(=O)NS(=O)(=O)C(C)(C)C)nn4)CC3)cc(OC(C)C)c2)c1", "note": "[Compound B2L084-01, N-tert-Butylsulfonyl-6-[4-[3-(5-ethoxypyridin-3-yl)-5-propan-2-yloxyphenylmethyl]piperazin-1-yl]pyridazine-3-carboxamide]", "values": [{"measurement": "ASMS ratio (%) n = 1", "setting": "[1]", "value": "−3.0", "unit": "%"}, {"measurement": "ASMS ratio (%) n = 2", "setting": "[2]", "value": "−1.9", "unit": "%"}]}, {"smiles": "CCOc1cncc(-c2cc(CN3CCN(c4ccc(C(=O)NS(=O)(=O)c5ccc(NCCSc6ccccc6)c(C(F)(F)F)c5)nn4)CC3)cc(OCC)c2)c1", "note": "[Compound B2R082-01]", "values": [{"measurement": "ASMS ratio (%) n = 1", "setting": "[1]", "value": 0.0, "unit": "%"}, {"measurement": "ASMS ratio (%) n = 2", "setting": "[2]", "value": 0.0, "unit": "%"}]}, {"smiles": "CCOc1cncc(-c2ccc(C(=O)N3CCN(c4ccc(C(=O)NS(=O)(=O)C(C)(C)C)nn4)CC3)c3ccccc23)c1", "note": "[Compound B2L014-01, N-tert-Butylsulfonyl-6-[4-[4-(5-ethoxypyridin-3-yl)naphthalene-1-carbonyl]piperazin-1-yl]pyridazine-3-carboxamide]", "values": [{"measurement": "ASMS ratio (%) n = 1", "setting": "[3]", "value": 0.3, "unit": "%"}, {"measurement": "ASMS ratio (%) n = 2", "setting": "[4]", "value": 0.5, "unit": "%"}]}, {"smiles": "CCOc1cccc(C#Cc2cncc(C(=O)N3CCN(c4ccc(C(=O)NS(=O)(=O)C(C)(C)C)cc4)CC3)c2)c1", "note": "[Compound B2L031-01, N-tert-Butylsulfonyl-4-[4-[5-[2-(3-ethoxyphenyl)ethynyl]pyridine-3-carbonyl]piperazin-1-yl]benzamide]", "values": [{"measurement": "ASMS ratio (%) n = 1", "setting": "[3]", "value": 0.0, "unit": "%"}, {"measurement": "ASMS ratio (%) n = 2", "setting": "[4]", "value": 0.0, "unit": "%"}]}, {"smiles": "CCOc1cncc(-c2cc(CN3CCN(c4ccc(C(=O)NS(=O)(=O)C(C)(C)C)nn4)CC3)cc(OC(F)(F)F)c2)c1", "note": "[Compound B2L090-01]", "values": [{"measurement": "ASMS ratio (%) n = 1", "setting": "[1]", "value": 0.0, "unit": "%"}, {"measurement": "ASMS ratio (%) n = 2", "setting": "[2]", "value": 0.0, "unit": "%"}]}, {"smiles": "CCOc1cncc(C#Cc2ccccc2C(=O)N2CCN(c3ccc(C(=O)NS(=O)(=O)c4ccc(NCCSc5ccccc5)c(C(F)(F)F)c4)nn3)CC2)c1", "note": "[Compound B2R008-01, 6-[4-[2-[2-(5-Ethoxypyridin-3-yl)ethynyl]benzoyl]piperazin-1-yl]-N-[4-(2-phenylsulfanylethylamino)-3-(trifluoromethyl)phenyl]sulfonylpyridazine-3-carboxamide]", "values": [{"measurement": "ASMS ratio (%) n = 1", "setting": "[1]", "value": 0.0, "unit": "%"}, {"measurement": "ASMS ratio (%) n = 2", "setting": "[2]", "value": 19.5, "unit": "%"}]}, {"smiles": "CCOc1cncc(-c2ccc(CN3CCN(c4ccc(C(=O)NS(=O)(=O)CCC(F)(F)F)nn4)CC3)c(CC)c2)c1", "note": "[Compound B2N076-01, 6-[4-[[4-(5-Ethoxypyridin-3-yl)-2-ethylphenyl]methyl]piperazin-1-yl]-N-(3,3,3-trifluoropropylsulfonyl)pyridazine-3-carboxamide]", "values": [{"measurement": "ASMS ratio (%) n = 1", "setting": "[1]", "value": 0.0, "unit": "%"}, {"measurement": "ASMS ratio (%) n = 2", "setting": "[2]", "value": 0.0, "unit": "%"}]}, {"smiles": "CCOc1cccc(-c2cc(OC)c(CN3CCN(c4ccc(C(=O)NS(=O)(=O)CCC(F)(F)F)nn4)CC3)c(OC)c2)c1", "note": "[Compound B2N085-01, 6-[4-[[4-(3-Ethoxyphenyl)-2,6-dimethoxyphenyl]methyl]piperazin-1-yl]-N-(3,3,3-trifluoropropylsulfonyl)pyridazine-3-carboxamide]", "values": [{"measurement": "ASMS ratio (%) n = 1", "setting": "[1]", "value": 0.0, "unit": "%"}, {"measurement": "ASMS ratio (%) n = 2", "setting": "[2]", "value": 0.0, "unit": "%"}]}, {"smiles": "CCOc1cncc(C#Cc2cncc(C(=O)N3CCN(c4ccc(C(=O)NS(=O)(=O)c5ccc(NCCSc6ccccc6)c(C(F)(F)F)c5)nn4)CC3)c2)c1", "note": "[Compound B2R010-01, 6-[4-[5-[2-(5-Ethoxypyridin-3-yl)ethynyl]pyridine-3-carbonyl]piperazin-1-yl]-N-[4-(2-phenylsulfanylethylamino)-3-(trifluoromethyl)phenyl]sulfonylpyridazine-3-carboxamide]", "values": [{"measurement": "ASMS ratio (%) n = 1", "setting": "[1]", "value": 0.0, "unit": "%"}, {"measurement": "ASMS ratio (%) n = 2", "setting": "[2]", "value": 0.0, "unit": "%"}]}, {"smiles": "CCOc1cccc(-c2cnn(-c3cc(C(=O)N4CCN(c5ccc(C(=O)NS(=O)(=O)c6ccc(NCCSc7ccccc7)c(C(F)(F)F)c6)cc5)CC4)cc(C(F)(F)F)c3)c2)c1", "note": "[Compound B2R043-01, 4-[4-[3-[4-(3-Ethoxyphenyl)pyrazol-1-yl]-5-(trifluoromethyl)benzoyl]piperazin-1-yl]-N-[4-(2-phenylsulfanylethylamino)-3-(trifluoromethyl)phenyl]sulfonylbenzamide]", "values": [{"measurement": "ASMS ratio (%) n = 1", "setting": "[1]", "value": 3.4, "unit": "%"}, {"measurement": "ASMS ratio (%) n = 2", "setting": "[2]", "value": "−9.0", "unit": "%"}]}, {"smiles": "CCOc1cccc(-c2cc(C(=O)N3CCN(c4ccc(C(=O)NS(=O)(=O)C(C)(C)C)nn4)CC3)cc(C(F)(F)F)c2)c1", "note": "[Compound B2L017-01, N-tert-Butylsulfonyl-6-[4-[3-(3-ethoxyphenyl)-5-(trifluoromethyl)benzoyl]piperazin-1-yl]pyridazine-3-carboxamide]", "values": [{"measurement": "ASMS ratio (%) n = 1", "setting": "[3]", "value": 0.0, "unit": "%"}, {"measurement": "ASMS ratio (%) n = 2", "setting": "[4]", "value": 0.0, "unit": "%"}]}, {"smiles": "CCOc1cccc(-c2ccc(CN3CCN(c4ccc(C(=O)NS(=O)(=O)CCC(F)(F)F)cc4)CC3)c3ccccc23)c1", "note": "[Compound B2N065-01, 4-[4-[[4-(3-Ethoxyphenyl)naphthalen-1-yl]methyl]piperazin-1-yl]-N-(3,3,3-trifluoropropylsulfonyl)benzamide]", "values": [{"measurement": "ASMS ratio (%) n = 1", "setting": "[1]", "value": 0.0, "unit": "%"}, {"measurement": "ASMS ratio (%) n = 2", "setting": "[2]", "value": 0.0, "unit": "%"}]}, {"smiles": "CCOc1cncc(-c2ccc(CN3CCN(c4ccc(C(=O)NS(=O)(=O)c5ccc(NCCSc6ccccc6)c(C(F)(F)F)c5)cc4)CC3)cc2C)c1", "note": "[Compound B2R048-01]", "values": [{"measurement": "ASMS ratio (%) n = 1", "setting": "[1]", "value": 9.2, "unit": "%"}, {"measurement": "ASMS ratio (%) n = 2", "setting": "[2]", "value": 7.5, "unit": "%"}]}, {"smiles": "CCOc1cccc(-c2ccc(CN3CCN(c4ccc(C(=O)NS(C)(=O)=O)nn4)CC3)c(OC)c2)c1", "note": "[Compound B2I079-01, 6-[4-[[4-(3-Ethoxyphenyl)-2-methoxyphenyl]methyl]piperazin-1-yl]-N-methylsulfonylpyridazine-3-carboxamide]", "values": [{"measurement": "ASMS ratio (%) n = 1", "setting": "[3]", "value": 0.0, "unit": "%"}, {"measurement": "ASMS ratio (%) n = 2", "setting": "[4]", "value": 0.0, "unit": "%"}]}, {"smiles": "CCOc1cccc(C#Cc2ccccc2CN2CCN(c3ccc(C(=O)NS(C)(=O)=O)cc3)CC2)c1", "note": "[Compound B2I069-01, 4-[4-[[2-[2-(3-Ethoxyphenyl)ethynyl]phenyl]methyl]piperazin-1-yl]-N-methylsulfonylbenzamide]", "values": [{"measurement": "ASMS ratio (%) n = 1", "setting": "[3]", "value": 0.0, "unit": "%"}, {"measurement": "ASMS ratio (%) n = 2", "setting": "[4]", "value": "−2.2", "unit": "%"}]}, {"smiles": "CCOc1cccc(-c2ccc(CN3CCN(c4ccc(C(=O)NS(=O)(=O)CCC(F)(F)F)cc4)CC3)cc2C)c1", "note": "[Compound B2N047-01, 4-[4-[[4-(3-Ethoxyphenyl)-3-methylphenyl]methyl]piperazin-1-yl]-N-(3,3,3-trifluoropropylsulfonyl)benzamide]", "values": [{"measurement": "ASMS ratio (%) n = 1", "setting": "[1]", "value": 0.0, "unit": "%"}, {"measurement": "ASMS ratio (%) n = 2", "setting": "[2]", "value": 0.0, "unit": "%"}]}]}
